{"source": "paper PMC5762315", "about": "“Inhibition of polo-like kinase 4 (PLK4): a new therapeutic option for rhabdoid tumors and pediatric medulloblastoma” (Oncotarget, 2017)", "experiment_in_all_cases": "biochemical", "format_in_all_cases": "biochemical", "key": {"various kinases [1]": {"biological_target": "various kinases (Homo sapiens, UniProt O00506)", "sequence (O00506 whole entry)": "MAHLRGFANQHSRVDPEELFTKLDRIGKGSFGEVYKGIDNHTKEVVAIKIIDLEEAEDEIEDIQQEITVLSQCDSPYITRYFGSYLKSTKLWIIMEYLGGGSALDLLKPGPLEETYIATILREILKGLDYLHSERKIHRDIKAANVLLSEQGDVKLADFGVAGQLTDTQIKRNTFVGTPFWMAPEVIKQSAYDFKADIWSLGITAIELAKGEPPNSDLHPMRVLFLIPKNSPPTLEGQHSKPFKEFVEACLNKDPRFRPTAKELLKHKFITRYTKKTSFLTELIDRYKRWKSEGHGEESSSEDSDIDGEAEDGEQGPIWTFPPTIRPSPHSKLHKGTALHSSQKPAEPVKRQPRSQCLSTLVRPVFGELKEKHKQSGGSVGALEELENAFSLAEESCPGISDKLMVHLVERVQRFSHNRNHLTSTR", "settings": "kinase STK25 (YSK1); ZLYTE"}, "various kinases [2]": {"biological_target": "various kinases (Homo sapiens, UniProt O75582)", "sequence (O75582 whole entry)": "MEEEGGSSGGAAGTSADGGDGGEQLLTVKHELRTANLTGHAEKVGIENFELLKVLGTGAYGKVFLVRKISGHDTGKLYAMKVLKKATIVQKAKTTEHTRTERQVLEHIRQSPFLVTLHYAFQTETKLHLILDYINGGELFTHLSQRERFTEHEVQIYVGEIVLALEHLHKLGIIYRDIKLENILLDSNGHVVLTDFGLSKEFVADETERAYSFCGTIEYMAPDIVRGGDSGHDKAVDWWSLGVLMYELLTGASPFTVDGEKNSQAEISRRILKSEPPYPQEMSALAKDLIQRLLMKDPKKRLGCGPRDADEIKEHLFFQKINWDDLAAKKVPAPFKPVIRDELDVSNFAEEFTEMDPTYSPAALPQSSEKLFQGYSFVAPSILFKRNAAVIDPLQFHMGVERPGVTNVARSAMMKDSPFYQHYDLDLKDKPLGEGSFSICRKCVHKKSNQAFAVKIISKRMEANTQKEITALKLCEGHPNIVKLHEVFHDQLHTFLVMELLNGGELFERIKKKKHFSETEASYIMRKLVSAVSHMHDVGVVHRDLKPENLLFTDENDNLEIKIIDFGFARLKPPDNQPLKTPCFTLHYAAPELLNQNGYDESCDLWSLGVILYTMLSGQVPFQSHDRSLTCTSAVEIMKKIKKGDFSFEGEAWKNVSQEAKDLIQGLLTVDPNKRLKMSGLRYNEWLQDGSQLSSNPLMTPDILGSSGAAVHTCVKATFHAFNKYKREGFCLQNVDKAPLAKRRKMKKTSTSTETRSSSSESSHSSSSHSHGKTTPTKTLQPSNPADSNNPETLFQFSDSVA", "settings": "kinase RPS6KA5 (MSK1); ZLYTE"}, "various kinases [3]": {"biological_target": "T1, various kinases (Homo sapiens, UniProt O94806)", "T1 sequence (O94806 1-890)": "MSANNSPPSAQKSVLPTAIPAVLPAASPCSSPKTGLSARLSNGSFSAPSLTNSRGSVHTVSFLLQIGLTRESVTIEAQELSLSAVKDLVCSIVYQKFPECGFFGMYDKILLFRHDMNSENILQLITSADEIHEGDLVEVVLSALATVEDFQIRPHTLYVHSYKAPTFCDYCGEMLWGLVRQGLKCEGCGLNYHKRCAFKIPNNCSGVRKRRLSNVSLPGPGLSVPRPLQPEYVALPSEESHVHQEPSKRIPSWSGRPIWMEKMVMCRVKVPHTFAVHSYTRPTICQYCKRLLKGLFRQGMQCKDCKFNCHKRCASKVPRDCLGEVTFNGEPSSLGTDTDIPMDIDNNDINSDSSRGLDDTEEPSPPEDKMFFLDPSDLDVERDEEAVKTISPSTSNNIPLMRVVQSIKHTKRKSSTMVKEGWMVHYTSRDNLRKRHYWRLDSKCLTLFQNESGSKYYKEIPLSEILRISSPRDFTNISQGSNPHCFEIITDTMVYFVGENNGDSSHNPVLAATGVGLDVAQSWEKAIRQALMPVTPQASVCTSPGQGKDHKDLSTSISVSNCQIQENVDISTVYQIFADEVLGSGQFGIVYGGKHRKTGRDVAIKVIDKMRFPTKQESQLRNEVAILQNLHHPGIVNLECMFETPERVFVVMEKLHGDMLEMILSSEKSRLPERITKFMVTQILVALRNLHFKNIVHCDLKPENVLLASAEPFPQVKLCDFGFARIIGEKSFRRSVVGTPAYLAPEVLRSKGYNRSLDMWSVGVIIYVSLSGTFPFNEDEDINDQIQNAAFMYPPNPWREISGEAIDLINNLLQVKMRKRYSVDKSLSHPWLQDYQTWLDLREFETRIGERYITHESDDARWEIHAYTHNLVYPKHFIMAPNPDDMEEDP", "settings": "kinase PRKCN (PKD3); ZLYTE"}, "various kinases [4]": {"biological_target": "various kinases (Homo sapiens, UniProt O96013)", "settings": "PAK4"}, "various kinases [5]": {"biological_target": "various kinases (Homo sapiens, UniProt P00519, T315I)", "settings": "ABL1 T315I"}, "various kinases [6]": {"biological_target": "various kinases (Homo sapiens, UniProt P06241)", "settings": "FYN"}, "various kinases [7]": {"biological_target": "various kinases (Homo sapiens, UniProt P07948)", "settings": "LYN A"}, "various kinases [8]": {"biological_target": "various kinases (Homo sapiens, UniProt P07949, A883F)", "sequence (P07949 29-1114 A883F)": "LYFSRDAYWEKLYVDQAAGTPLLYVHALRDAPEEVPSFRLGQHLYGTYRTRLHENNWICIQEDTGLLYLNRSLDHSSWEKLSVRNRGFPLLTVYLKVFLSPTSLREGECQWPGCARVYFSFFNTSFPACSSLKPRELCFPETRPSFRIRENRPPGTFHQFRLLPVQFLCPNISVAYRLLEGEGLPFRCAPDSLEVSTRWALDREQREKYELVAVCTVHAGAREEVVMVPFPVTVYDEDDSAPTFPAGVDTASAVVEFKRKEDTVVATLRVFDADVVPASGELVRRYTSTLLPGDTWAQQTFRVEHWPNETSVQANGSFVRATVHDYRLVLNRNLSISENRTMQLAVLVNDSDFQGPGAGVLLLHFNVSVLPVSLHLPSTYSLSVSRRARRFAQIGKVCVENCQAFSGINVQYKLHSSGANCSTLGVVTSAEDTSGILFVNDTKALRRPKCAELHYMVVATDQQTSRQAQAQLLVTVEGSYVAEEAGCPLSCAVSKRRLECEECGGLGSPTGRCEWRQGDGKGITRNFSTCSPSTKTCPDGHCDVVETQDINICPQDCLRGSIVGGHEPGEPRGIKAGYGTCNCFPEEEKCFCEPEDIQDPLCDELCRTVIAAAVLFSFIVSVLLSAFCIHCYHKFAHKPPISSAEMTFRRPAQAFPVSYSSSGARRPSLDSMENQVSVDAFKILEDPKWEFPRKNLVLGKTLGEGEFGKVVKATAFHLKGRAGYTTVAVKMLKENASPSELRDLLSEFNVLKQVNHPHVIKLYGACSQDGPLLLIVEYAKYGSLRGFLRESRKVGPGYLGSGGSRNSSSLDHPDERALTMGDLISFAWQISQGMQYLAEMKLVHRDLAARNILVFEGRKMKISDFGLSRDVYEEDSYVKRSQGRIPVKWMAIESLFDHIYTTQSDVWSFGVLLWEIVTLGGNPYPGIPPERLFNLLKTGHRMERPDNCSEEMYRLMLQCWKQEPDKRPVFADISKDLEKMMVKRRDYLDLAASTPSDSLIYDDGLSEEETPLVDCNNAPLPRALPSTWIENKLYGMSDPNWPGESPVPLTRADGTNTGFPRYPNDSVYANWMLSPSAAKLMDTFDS", "settings": "kinase RET A883F; ZLYTE"}, "various kinases [9]": {"biological_target": "various kinases (Homo sapiens, UniProt P14616)", "settings": "INSRR (IRR)"}, "various kinases [10]": {"biological_target": "various kinases (Homo sapiens, UniProt P16234, V561D)", "settings": "PDGFRA V561D"}, "various kinases [11]": {"biological_target": "various kinases (Homo sapiens, UniProt P21709)", "settings": "EPHA1"}, "various kinases [12]": {"biological_target": "various kinases (Homo sapiens, UniProt P22455)", "settings": "FGFR4"}, "various kinases [13]": {"biological_target": "various kinases (Homo sapiens, UniProt P22607, V555M)", "settings": "FGFR3 V555M"}, "various kinases [14]": {"biological_target": "various kinases (Homo sapiens, UniProt P24723)", "sequence (P24723 whole entry)": "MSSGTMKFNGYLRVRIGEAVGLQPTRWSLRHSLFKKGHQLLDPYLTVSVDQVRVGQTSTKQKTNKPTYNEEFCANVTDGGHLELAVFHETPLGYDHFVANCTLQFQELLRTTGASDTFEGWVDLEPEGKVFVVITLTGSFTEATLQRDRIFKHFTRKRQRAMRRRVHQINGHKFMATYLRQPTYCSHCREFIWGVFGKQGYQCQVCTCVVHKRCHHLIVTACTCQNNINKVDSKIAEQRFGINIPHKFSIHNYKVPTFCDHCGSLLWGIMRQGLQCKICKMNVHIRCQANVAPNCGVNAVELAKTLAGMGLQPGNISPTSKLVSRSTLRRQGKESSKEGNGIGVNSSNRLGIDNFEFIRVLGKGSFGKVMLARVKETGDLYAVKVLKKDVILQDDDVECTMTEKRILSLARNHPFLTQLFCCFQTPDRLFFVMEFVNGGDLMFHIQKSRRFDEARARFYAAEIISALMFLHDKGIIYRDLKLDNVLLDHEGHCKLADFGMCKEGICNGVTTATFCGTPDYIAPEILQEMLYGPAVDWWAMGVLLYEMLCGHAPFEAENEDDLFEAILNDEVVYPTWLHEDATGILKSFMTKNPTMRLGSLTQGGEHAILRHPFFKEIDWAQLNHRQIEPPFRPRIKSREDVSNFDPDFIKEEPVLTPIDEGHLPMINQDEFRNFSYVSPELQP", "settings": "kinase PRKCH (PKC eta); ZLYTE"}, "various kinases [15]": {"biological_target": "various kinases (Homo sapiens, UniProt P24941)", "settings": "CDK2/cyclin A"}, "various kinases [16]": {"biological_target": "various kinases (Homo sapiens, UniProt P27361)", "settings": "MAPK3 (ERK1)"}, "various kinases [17]": {"biological_target": "various kinases (Homo sapiens, UniProt P28482)", "settings": "MAPK1 (ERK2)"}, "various kinases [18]": {"biological_target": "various kinases (Homo sapiens, UniProt P29317)", "settings": "EPHA2"}, "various kinases [19]": {"biological_target": "various kinases (Homo sapiens, UniProt P31751)", "settings": "AKT2 (PKB beta)"}, "various kinases [20]": {"biological_target": "various kinases (Homo sapiens, UniProt P34947)", "settings": "GRK5"}, "various kinases [21]": {"biological_target": "various kinases (Homo sapiens, UniProt P51813)", "settings": "BMX"}, "various kinases [22]": {"biological_target": "various kinases (Homo sapiens, UniProt P51957)", "settings": "NEK4"}, "various kinases [23]": {"biological_target": "various kinases (Homo sapiens, UniProt P54762)", "settings": "EPHB1"}, "various kinases [24]": {"biological_target": "various kinases (Homo sapiens, UniProt Q9H3Y6)", "sequence (Q9H3Y6 whole entry)": "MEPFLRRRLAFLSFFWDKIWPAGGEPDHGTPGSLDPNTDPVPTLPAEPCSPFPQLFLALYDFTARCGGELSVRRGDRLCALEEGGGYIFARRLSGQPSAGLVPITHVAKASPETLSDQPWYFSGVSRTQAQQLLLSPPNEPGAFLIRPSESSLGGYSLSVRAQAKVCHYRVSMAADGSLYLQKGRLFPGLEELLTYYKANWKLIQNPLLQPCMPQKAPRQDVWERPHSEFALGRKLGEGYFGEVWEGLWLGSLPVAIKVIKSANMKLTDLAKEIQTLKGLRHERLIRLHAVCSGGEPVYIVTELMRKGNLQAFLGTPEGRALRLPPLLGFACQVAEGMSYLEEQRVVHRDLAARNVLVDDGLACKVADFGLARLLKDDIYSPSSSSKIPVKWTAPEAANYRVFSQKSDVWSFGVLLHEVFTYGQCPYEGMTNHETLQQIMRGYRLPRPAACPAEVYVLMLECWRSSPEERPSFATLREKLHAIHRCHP", "settings": "kinase SRMS (Srm); ZLYTE"}, "various kinases [25]": {"biological_target": "various kinases (Homo sapiens, UniProt Q9P1W9)", "sequence (Q9P1W9 whole entry)": "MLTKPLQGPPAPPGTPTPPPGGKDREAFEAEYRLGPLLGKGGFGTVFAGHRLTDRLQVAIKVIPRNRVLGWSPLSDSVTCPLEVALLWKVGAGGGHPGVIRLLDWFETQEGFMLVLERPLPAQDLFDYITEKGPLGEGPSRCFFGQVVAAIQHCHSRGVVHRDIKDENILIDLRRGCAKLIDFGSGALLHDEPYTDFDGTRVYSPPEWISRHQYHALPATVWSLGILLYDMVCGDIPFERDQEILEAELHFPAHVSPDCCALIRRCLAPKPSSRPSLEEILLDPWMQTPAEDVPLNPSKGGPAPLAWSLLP", "settings": "PIM2"}, "various kinases [26]": {"biological_target": "various kinases (Homo sapiens, UniProt Q9UPE1)", "sequence (Q9UPE1 whole entry)": "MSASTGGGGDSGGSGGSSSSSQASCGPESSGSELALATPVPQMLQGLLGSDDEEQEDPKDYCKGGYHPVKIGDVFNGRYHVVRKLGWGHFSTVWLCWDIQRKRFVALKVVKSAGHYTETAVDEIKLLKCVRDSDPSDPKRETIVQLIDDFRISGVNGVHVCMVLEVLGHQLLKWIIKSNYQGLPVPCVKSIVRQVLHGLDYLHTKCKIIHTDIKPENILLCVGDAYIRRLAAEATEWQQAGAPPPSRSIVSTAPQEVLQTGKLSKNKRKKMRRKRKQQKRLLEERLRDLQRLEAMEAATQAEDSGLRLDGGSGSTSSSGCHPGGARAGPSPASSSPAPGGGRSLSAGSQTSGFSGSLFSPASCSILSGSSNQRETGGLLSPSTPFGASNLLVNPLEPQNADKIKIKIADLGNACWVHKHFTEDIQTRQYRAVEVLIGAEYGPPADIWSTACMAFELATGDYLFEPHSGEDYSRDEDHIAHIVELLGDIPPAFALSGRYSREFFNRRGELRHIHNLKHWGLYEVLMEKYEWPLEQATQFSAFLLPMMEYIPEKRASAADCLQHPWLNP", "settings": "kinase STK23 (MSSK1); ZLYTE"}, "various kinases [27]": {"biological_target": "various kinases (Homo sapiens, UniProt Q9Y463)", "sequence (Q9Y463 whole entry)": "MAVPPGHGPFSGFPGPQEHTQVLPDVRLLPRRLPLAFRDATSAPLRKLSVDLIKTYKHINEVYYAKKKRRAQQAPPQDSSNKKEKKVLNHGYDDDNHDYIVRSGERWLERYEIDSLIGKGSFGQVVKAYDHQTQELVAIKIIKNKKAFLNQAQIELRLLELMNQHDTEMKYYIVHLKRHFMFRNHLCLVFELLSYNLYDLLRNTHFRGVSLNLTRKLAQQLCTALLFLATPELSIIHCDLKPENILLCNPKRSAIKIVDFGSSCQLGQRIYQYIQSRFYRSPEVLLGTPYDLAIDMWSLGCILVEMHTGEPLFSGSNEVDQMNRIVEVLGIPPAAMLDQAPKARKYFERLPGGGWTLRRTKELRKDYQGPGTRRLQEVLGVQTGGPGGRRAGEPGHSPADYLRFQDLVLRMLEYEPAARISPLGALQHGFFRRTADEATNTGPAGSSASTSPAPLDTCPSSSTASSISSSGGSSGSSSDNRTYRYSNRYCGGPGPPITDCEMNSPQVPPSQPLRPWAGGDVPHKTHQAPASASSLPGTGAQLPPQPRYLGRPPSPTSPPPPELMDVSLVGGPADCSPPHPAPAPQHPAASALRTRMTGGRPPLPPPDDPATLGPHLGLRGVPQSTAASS", "settings": "DYRK1B"}}, "note": "Values joined by “and” are separate entries in the source; they are usually repeats but may differ in a detail not shown here. Equal values may be shown once.", "data": [{"molecule": "COc1ccc2c(c1)[C@]1(C[C@H]1c1ccc3c(/C=C/c4ccc(CN5C[C@@H](C)O[C@@H](C)C5)cc4)n[nH]c3c1)C(=O)N2", "note": "[CFI-400945]", "values": [{"measurement": "% Inhibition Average", "setting": "various kinases [1]", "value": -3, "unit": "%"}, {"measurement": "% Inhibition Duplicate #1", "setting": "various kinases [1]", "value": 0, "unit": "%"}, {"measurement": "% Inhibition Duplicate #2", "setting": "various kinases [1]", "value": -6, "unit": "%"}, {"measurement": "% Inhibition Average", "setting": "various kinases [2]", "value": 3, "unit": "%"}, {"measurement": "% Inhibition Duplicate #1", "setting": "various kinases [2]", "value": 2, "unit": "%"}, {"measurement": "% Inhibition Duplicate #2", "setting": "various kinases [2]", "value": 4, "unit": "%"}, {"measurement": "% Inhibition Average", "setting": "various kinases [3]", "value": 4, "unit": "%"}, {"measurement": "% Inhibition Duplicate #1", "setting": "various kinases [3]", "value": 3, "unit": "%"}, {"measurement": "% Inhibition Duplicate #2", "setting": "various kinases [3]", "value": 4, "unit": "%"}, {"measurement": "% Inhibition", "setting": "various kinases [4]", "value": "10% and 9%"}, {"measurement": "% Inhibition", "setting": "various kinases [5]", "value": "83% and 78%"}, {"measurement": "IC50", "setting": "various kinases [5]", "value": 27.2, "unit": "nM"}, {"measurement": "% Inhibition", "setting": "various kinases [6]", "value": "6% and 5%"}, {"measurement": "% Inhibition", "setting": "various kinases [7]", "value": "11% and 14%"}, {"measurement": "% Inhibition Average", "setting": "various kinases [8]", "value": 7, "unit": "%"}, {"measurement": "% Inhibition Duplicate #1", "setting": "various kinases [8]", "value": 9, "unit": "%"}, {"measurement": "% Inhibition Duplicate #2", "setting": "various kinases [8]", "value": 4, "unit": "%"}, {"measurement": "% Inhibition", "setting": "various kinases [9]", "value": "4% and 6%"}, {"measurement": "% Inhibition", "setting": "various kinases [10]", "value": "5% and 4%"}, {"measurement": "% Inhibition", "setting": "various kinases [11]", "value": "20% and 26%"}, {"measurement": "% Inhibition", "setting": "various kinases [12]", "value": "10% and 16%"}, {"measurement": "% Inhibition", "setting": "various kinases [13]", "value": 56, "unit": "%"}, {"measurement": "% Inhibition Average", "setting": "various kinases [14]", "value": -3, "unit": "%"}, {"measurement": "% Inhibition Duplicate #1", "setting": "various kinases [14]", "value": -10, "unit": "%"}, {"measurement": "% Inhibition Duplicate #2", "setting": "various kinases [14]", "value": 3, "unit": "%"}, {"measurement": "% Inhibition", "setting": "various kinases [15]", "value": "7% and 2%"}, {"measurement": "% Inhibition", "setting": "various kinases [16]", "value": 4, "unit": "%"}, {"measurement": "% Inhibition", "setting": "various kinases [17]", "value": "9% and 7%"}, {"measurement": "% Inhibition", "setting": "various kinases [18]", "value": "14% and 12%"}, {"measurement": "% Inhibition", "setting": "various kinases [19]", "value": 3, "unit": "%"}, {"measurement": "% Inhibition", "setting": "various kinases [20]", "value": "5% and 3%"}, {"measurement": "% Inhibition", "setting": "various kinases [21]", "value": "52% and 54%"}, {"measurement": "% Inhibition", "setting": "various kinases [22]", "value": "3% and 1%"}, {"measurement": "% Inhibition", "setting": "various kinases [23]", "value": "11% and 16%"}, {"measurement": "% Inhibition Average", "setting": "various kinases [24]", "value": 11, "unit": "%"}, {"measurement": "% Inhibition Duplicate #1", "setting": "various kinases [24]", "value": 10, "unit": "%"}, {"measurement": "% Inhibition Duplicate #2", "setting": "various kinases [24]", "value": 12, "unit": "%"}, {"measurement": "% Inhibition", "setting": "various kinases [25]", "value": "8% and 9%"}, {"measurement": "% Inhibition Average", "setting": "various kinases [26]", "value": -1, "unit": "%"}, {"measurement": "% Inhibition Duplicate #1", "setting": "various kinases [26]", "value": -1, "unit": "%"}, {"measurement": "% Inhibition Duplicate #2", "setting": "various kinases [26]", "value": -2, "unit": "%"}, {"measurement": "% Inhibition", "setting": "various kinases [27]", "value": "-1% and -5%"}]}]}
